No end group written: not given here.
Assays:
[1] = test system: RSV (A2 strain) in HEp-2 cells
RSV F protein = settings: ref [14], cited from earlier work
[2] = test system: RSV F construct FN155 (F residues 155–550); settings: yeast two-hybrid assay; FN155 construct encoding F residues 155–550; ref [14]; cited from earlier work
[3] = test system: RSV F (HEp-2 cells expressing RSV F, G and SH); assay type: cell-based, respiratory syncytial virus

Substance: DRLRPLSYPDTDVILMCFS [RhoA67-85]
- RSV-induced syncytium formation ([1]; peptide incubated 1 h on ice with RSV, 5 and 10 μg/ml, HEp-2 cells, 3 d): did not block

Substance: RhoA: RhoA, a small GTPase of the Ras superfamily
- binding to RSV F protein (RSV F protein): binds
- binding to RSV F construct expressing the heptad repeat region [2]: not bind

Substance: DSPDSLENIPEKWTPEVKH [RhoA87-105]
- cell-to-cell fusion induced by RSV F [3]: not inhibited
- plaque formation ([1]; pretreatment of virus inoculum, 1 h on ice, peptide 5 and 10 μg/ml, HEp-2 cells, 3 d, relative to media-treated controls): did not have any effect

Substance: TDVILMCFSIDSPDSLENI [RhoA77-95]
- IC50 ([1]; 1 h): 250 nM

Substance: RhoA amino acids 67–110: F binding domain of RhoA (amino acids 67–110)
- binding to RSV F amino acids 146–155 (RSV F protein; RhoA amino acids 67–110): bind
